ChEMBL document CHEMBL1150723, “Traditional medicinal plants of Thailand, VIII. Isoflavonoids of Dalbergia candenatensis” (1987)
Values after ≈ are worked out from the molar mass of the structure shown. Active and inactive are the calls of the source. No cut-off for these calls is given here.

What was measured:
Type in all cases: functional
Staphylococcus aureus = assay: Antibacterial activity against Staphylococcus aureus ATCC 25923 after 16 hrs by microdilution assay; details: ATCC 25923, 16 h
Bacillus subtilis = assay: Antibacterial activity against Bacillus subtilis ATCC 6633 after 16 hrs by microdilution assay; details: ATCC 6633, 16 h
Escherichia coli = assay: Antibacterial activity against Escherichia coli ATCC 25922 after 16 hrs by microdilution assay; details: ATCC 25922, 16 h
Candida albicans = assay: Antifungal activity against Candida albicans ATCC 10259 after 3 days by microdilution assay
Penicillium expansum = assay: Antifungal activity against Penicillium expansum ATCC 7861 after 3 days by microdilution assay
Aspergillus niger = assay: Antifungal activity against Aspergillus niger ATCC 6275 after 3 days by microdilution assay
[1] = tested on: Trichophyton mentagrophytes; assay: Antifungal activity against Trichophyton mentagrophytes ATCC 9533 after 3 days by microdilution assay
P388 = assay: Cytotoxicity against mouse P388 cells

Row | Compound | MIC (Staphylococcus aureus) [µg/mL] | MIC (Bacillus subtilis) [µg/mL] | MIC (Escherichia coli) [µg/mL] | MIC (Candida albicans; ATCC 10259, 72 h) [µg/mL] | MIC (Penicillium expansum; ATCC 7861, 72 h) [µg/mL] | MIC (Aspergillus niger; ATCC 6275, 72 h) [µg/mL] | MIC ([1]; ATCC 9533, 72 h) [µg/mL] | EC50 (P388; read-out: ED50 (the source's name)) [µg/mL] | ED50 (P388) | MIC (Candida albicans) [µg/mL] | MIC (Penicillium expansum) [µg/mL] | MIC (Aspergillus niger) [µg/mL] | MIC [1] [µg/mL]
1 | COc1ccc(C2COc3cc(O)ccc3C2)c(OC)c1O (racemic) [MUCRONULATOL(+/-)] | > 100 | > 100 | 50 (≈ 165 µM) | > 100 | > 100 | > 100 | 25 (≈ 82.7 µM) | – | – | – | – | – | –
2 | COC1=CC(=O)C([C@@H]2COc3cc(O)ccc3C2)=CC1=O | 6 (≈ 21 µM) | 3 (≈ 10.5 µM) | 6 (≈ 21 µM) | 50 (≈ 175 µM) | > 100 | 100 (≈ 349 µM) | 25 (≈ 87.3 µM) | 0.5 (≈ 1.75 µM) | – | – | – | – | –
3 | COC1=CC(=O)C(c2coc3cc(O)cc(O)c3c2=O)=CC1=O | > 100 | 100 (≈ 318 µM) | 50 (≈ 159 µM) | > 100 | > 100 | > 100 | 100 (≈ 318 µM) | – | inactive | – | – | – | –
4 | NYSTATIN | – | – | – | – | – | – | – | – | – | 1.5 | 6 | 6 | 3
5 | CN(C)[C@@H]1C(O)=C(C(N)=O)C(=O)[C@@]2(O)C(O)=C3C(=O)c4c(O)cccc4[C@@](C)(O)[C@H]3C[C@@H]12 [TETRACYCLINE] | 0.6 (≈ 1.35 µM) | 2.5 (≈ 5.63 µM) | 1.2 (≈ 2.7 µM) | – | – | – | – | – | – | – | – | – | –
6 | COc1ccc(-c2coc3cc(O)ccc3c2=O)cc1 [FORMONONETIN] | > 100 | > 100 | 100 (≈ 373 µM) | > 100 | 50 (≈ 186 µM) | 100 (≈ 373 µM) | > 100 | – | – | – | – | – | –
7 | COc1ccc([C@@H]2COc3cc(O)ccc3C2)c(O)c1 | > 100 | 50 (≈ 184 µM) | 50 (≈ 184 µM) | > 100 | > 100 | > 100 | 25 (≈ 91.8 µM) | – | – | – | – | – | –
